Like-named read-outs stand apart in the source and are kept apart here.
Tests used:
[1] = TEAC method (Trolox Equivalent Antioxidant Capacity Assay); type: biochemical; settings: ratio of gradient to gradient of Trolox; 650 nm, 37 °C, about 90 minutes
Description: This assay is used to measure the total antioxidant activity of pure substances, biological fluids and plant compounds and is based on the reaction of antioxidants with the cation radical ABTS·^+ (2,2'-azinobis(3-ethylbenzothiazolin-6-sulphonate)). This cation radical is metastable and has to be generated just before the experiment by reacting ABTS with hydrogen peroxide in the presence of HRP. This radical can be reduced, with consequent loss of absorbance, by an antioxidant whose scavenging capacity can be measured spectrophotometrically at 650 nm. The test is carried out at 37 °C and the results are obtained from a comparison with Trolox (a synthetic antioxidant and hydrophilic analogue of vitamin E).
The ABTS solution S1 was prepared as follows: • 20 mg of ABTS were added to 50 mM of citric acid buffer (40 ml) at pH=4.5 and to the resulting solution there was added an aqueous solution of HRP (4.4 mg, 400 µl) and an aqueous solution of H2O2 (10 µl of a 30% solution diluted with 16.3 ml of water).
For each of the compounds (1)-(11), as synthesized above, there was prepared a 600 µM solution in water, methanol or DMSO according to its solubility, as well as a Trolox solution as reference.
Each solution was diluted to produce 6 solutions each at a concentration between 25 µM and 300 µM. From each of the diluted and divided solutions, there were withdrawn 20 µl to which 200 µl of solution S1 were then added.
The decrease in absorbance of each solution thus obtained was monitored at 650 nm until a stable value was reached (about 90 minutes).
For each set of 6 solutions and for the reference trolox solution, the absorption was given in graph form as a function of the amount of compound (nmol) in the solution. The gradient of the straight line obtained by linear interpolation was determined according to the least squares method. The TEAC value of each compound of the invention is given in the table below and is expressed as the ratio between the gradient of the resulting straight line and the gradient of the reference (trolox) straight line.

[2] = system: doxorubicin-induced cerebral oxidative stress in mice; experiment: In vivo assay of cerebral oxidative stress induced in mice by doxorubicin (model and oxidized animals); settings: Mus musculus; for inhibition in vivo at 50 mg/kg: overall, compared with its own vehicle, read-out: inhibition of the doxorubicin effect; for change in vivo at 50 mg/kg: oxidized mice
Method: The assay was carried out on compounds (1)-(5) and (7)-(11) and on edaravone (E) as comparative compound.
(§1) 10 mice were used for each treatment group. For each compound 50 mg/kg were administered intraperitoneally (IP) for three consecutive days (day 0, 1 and 2); half the animals (5) also received IP 16.7 mg/kg of doxorubicin immediately after the first treatment (day 0). On the day after the last administration (day 3) the animals were killed by neck dislocation and the brains were removed, weighed and frozen in liquid nitrogen.
(§2) For the analyses of oxidative stress, 100 mg/ml of brain homogenate was prepared in HEB^(*) buffer (pH 7.4 EDTA/HEPES^(**)) containing a mixture of enzyme inhibitors (Leupeptin, Pepstatin, Aprotinin, BHA).
(§3) The evaluation parameters were: • BrW/BWi: ratio between final brain weight and initial body weight (day 0); • Prot. Hmg: total proteins in the homogenate (BCA method, i.e. bicinchoninic acid); • Prot. Ox: oxidized proteins in the Hmg by means of a colorimetric method using dinitrophenylhydrazone (DNPH); • GSH: reduced glutathione in the supernatant (sn) of the Hmg, obtained after precipitation with metaphosphoric acid (MPA), by means of a colorimetric method using dithiodinitrobenzene (DTNB); • CAT: catalase in the Hmg by a colorimetric method using potassium dichromate; • SOD: superoxide dismutase by a colorimetric method using SOD Reagent (xanthine, EDTA, nitroblue tetrazole, Na2CO3, BSA, i.e. bovine serum albumin); • GST: glutathione S-transferase in the supernatant by a colorimetric method using chlorodinitrobenzene (CDNB) and GSH; and • GPx: glutathione peroxidase in the supernatant after addition of GSH and t-BuOOH, heating and precipitation with MPA; followed by GSH method with DTNB. The assay was performed on the compounds (1)-(5) and (7)-(11) and on edaravone (E), as comparative compound.
The mean effect (n=5 experiments) of doxorubicin (D), i.e. "oxidized" animal, relative to the vehicle (V), the vehicle representing the healthy animal.
All the parameters, with the exclusion of Brain/BWi and Prot. Hmg, were normalized for total Hmg proteins. The D value standard deviations and the % incidence relative to V are given in italics.
The effect of the tested compounds on the "oxidized" animals was given as % inhibition relative to the percentage change due to doxorubicin alone. The effect of the compounds on the oxidized animals can be expressed both as a function of the values of the vehicle (healthy, vehicle only) and as a function of the value of its own (healthy, compound only): • Vehicle: percentage [(Compound+D)/V]x100/[(V+D)/V]x100 • Its own: percentage [(Compound+D)/Compound]x100/[(V+D)/V]x100
Again in this case, the mean % effect relative to doxorubicin alone could be given for all the parameters simultaneously, as an approximate index of effectiveness on the cerebral oxidative state of the animal.

healthy animals = experiment: Effect of the compounds on healthy animals (same in vivo assay, cerebral oxidative parameters); parameters: species or system mice
Method: as §1, §2, §3
The mean % effect, on all the parameters simultaneously, of the triple treatment in healthy animal, as mean percentage change relative to the vehicle. This value is useful as an approximate safety index of the oxidative state of the brain, i.e. the capacity of the compounds of the invention not to alter cerebral homeostasis in healthy animals.

[3] = ip, % inhibition relative to change due to doxorubicin alone, vs its own, read-out: Brain/BWi its own
[4] = ip, % inhibition relative to change due to doxorubicin alone, vs its own, read-out: CAT/pr its own
[5] = ip, % inhibition relative to change due to doxorubicin alone, vs its own, read-out: GPX/pr its own
[6] = ip, % inhibition relative to change due to doxorubicin alone, vs its own, read-out: GSH/pr its own
[7] = ip, % inhibition relative to change due to doxorubicin alone, vs its own, read-out: GST/pr its own
[8] = ip, % inhibition relative to change due to doxorubicin alone, vs its own, read-out: Prot. Hmg its own
[9] = ip, % inhibition relative to change due to doxorubicin alone, vs its own, read-out: Prot. Ox/pr its own
[10] = ip, % inhibition relative to change due to doxorubicin alone, vs its own, read-out: SOD/pr its own
[11] = ip, % inhibition relative to change due to doxorubicin alone, vs vehicle, read-out: Brain/BWi vehicle
[12] = ip, % inhibition relative to change due to doxorubicin alone, vs vehicle, read-out: CAT/pr vehicle
[13] = ip, % inhibition relative to change due to doxorubicin alone, vs vehicle, read-out: GPX/pr vehicle
[14] = ip, % inhibition relative to change due to doxorubicin alone, vs vehicle, read-out: GSH/pr vehicle
[15] = ip, % inhibition relative to change due to doxorubicin alone, vs vehicle, read-out: GST/pr vehicle
[16] = ip, % inhibition relative to change due to doxorubicin alone, vs vehicle, read-out: Prot. Hmg vehicle
[17] = ip, % inhibition relative to change due to doxorubicin alone, vs vehicle, read-out: Prot. Ox/pr vehicle
[18] = ip, % inhibition relative to change due to doxorubicin alone, vs vehicle, read-out: SOD/pr vehicle
[19] = 50 mg/kg IP x3 days + doxorubicin, computed as a function of its own (healthy, compound only), read-out: mean % effect relative to doxorubicin alone, all parameters (Its own)
[20] = healthy mice, 50 mg/kg IP for three consecutive days, mean over all parameters, D = doxorubicin alone, 50 mg/kg
[21] = healthy mice, 50 mg/kg IP x3 days, percentage change relative to the vehicle

Compound | TEAC [1] | inhibition in vivo at 50 mg/kg ([2]; ip) [%] | change in vivo at 50 mg/kg [2, 3] [%] | change in vivo at 50 mg/kg [2, 4] [%] | change in vivo at 50 mg/kg [2, 5] [%] | change in vivo at 50 mg/kg [2, 6] [%] | change in vivo at 50 mg/kg [2, 7] [%] | change in vivo at 50 mg/kg [2, 8] [%] | change in vivo at 50 mg/kg [2, 9] [%] | change in vivo at 50 mg/kg [2, 10] [%] | change in vivo at 50 mg/kg [2, 11] [%] | change in vivo at 50 mg/kg [2, 12] [%] | change in vivo at 50 mg/kg [2, 13] [%] | change in vivo at 50 mg/kg [2, 14] [%] | change in vivo at 50 mg/kg [2, 15] [%] | change in vivo at 50 mg/kg [2, 16] [%] | change in vivo at 50 mg/kg [2, 17] [%] | change in vivo at 50 mg/kg [2, 18] [%] | change in vivo at 50 mg/kg [2, 19] [%] | Average % variation with respect to the vehicle (healthy animals; [20]) | further results
O=C1CC(c2ccccc2)CC(=O)C1C1COCCN1O (stereo not drawn) [(5), 2-(4-hydroxymorpholin-3-yl)-5-phenylcyclohexane-1,3-dione] | 1.2 | 45 to 50 | -128 | -24.2 | -14.1 | -40.8 | -27.5 | -42.2 | -43.6 | 3.5 | -49.3 | 7.6 | -7.1 | -21.6 | -8.8 | -12 | -15.7 | -4.2 | -47.5 | did not significantly alter the parameters | Average % variation with respect to the vehicle (healthy animals; healthy mice, 50 mg/kg IP for three consecutive days, mean over all parameters, D = doxorubicin alone, listed as V+(5), 50 mg/kg): -3.2%; Prot. Hmg (healthy animals; [21]): 5.0%; Brain/BWi (healthy animals; mouse, in vivo, ip, 50 mg/kg): 0.1%; CAT/pr (healthy animals; mouse, in vivo, ip, 50 mg/kg): -8.1%; GPX/pr (healthy animals; mouse, in vivo, ip, 50 mg/kg): -4.1%; GSH/pr (healthy animals; mouse, in vivo, ip, 50 mg/kg): -6.7%; GST/pr (healthy animals; mouse, in vivo, ip, 50 mg/kg): -5.8%; Prot. Ox/pr (healthy animals; mouse, in vivo, ip, 50 mg/kg): 1.8%; SOD/pr (healthy animals; mouse, in vivo, ip, 50 mg/kg): -3.7%
O=C1CCC(=O)C1C1COCCN1O (stereo not drawn) [(7), 2-(4-hydroxymorpholin-3-yl)-cyclopentane-1,3-dione] | 1.5 | ~85 | -85.5 | -45.5 | -30.3 | -138 | -29.7 | -48.2 | 20.3 | -23.8 | 21.7 | 2.3 | -23.2 | -60.8 | -22 | -14.5 | -22.1 | -25.9 | -85.5 | did not significantly alter the parameters | Average % variation with respect to the vehicle (healthy animals; healthy mice, 50 mg/kg IP for three consecutive days, mean over all parameters, D = doxorubicin alone, listed as V+(7), 50 mg/kg): -3.5%; Brain/BWi (healthy animals; [21]): -9.8%; CAT/pr (healthy animals; [21]): -11.6%; GPX/pr (healthy animals; [21]): -0.8%; GSH/pr (healthy animals; [21]): -9.5%; GST/pr (healthy animals; [21]): -0.5%; Prot. Hmg (healthy animals; [21]): 3.6%; Prot. Ox/pr (healthy animals; [21]): -7.2%; SOD/pr (healthy animals; [21]): 0.5%
O=C1c2ccccc2C(=O)C1C1COCCN1O (stereo not drawn) [(8), 2-(4-hydroxymorpholin-3-yl)-2H-indene-1,3-dione] | 1.5 | 45 to 50 | -103 | -28.8 | -2 | -139 | -14.3 | -20.5 | -96.5 | -11.9 | 0 | 27.3 | 29.3 | -48 | 68.1 | 49.4 | -65.7 | 11.9 | -45.6 |  | Average % variation with respect to the vehicle (healthy animals; mouse, in vivo, ip, 50 mg/kg): -8.0%

Reference: EP2345639A1, “Cyclic hydroxylamine derivatives, their preparation and use as antioxidants” (ABIOGEN PHARMA S.p.A., priority 2009, dated 2011)
